The source of these data is US7008649B2, “Cancer treatment composition and method using natural plant essential oils with signal transduction modulators” (Ecosmart Techonlogies, Inc., priority 1998, dated 2006).

What all share (assay type): cell-based, human
The subject of test [1] is MCF-7 cells. As to the kind of experiment: Mixed exposure of plant essential oil compounds and forskolin (FK) on E2-induced breast cancer cell growth (FIG. 3). The following applies: mixed exposure with forskolin (FK), 10 nM estrogen. The procedure: (§1) MCF-7 cells were cultured in growth medium supplemented with 10% fetal bovine serum (FBS). At 85% confluence, cells were sub-cultured in 6 well petri-dishes medium supplemented with 5% FBS serum stripped medium, phenol red free for 24 hours prior to the treatment of different concentrations of the test chemicals. Cells were either counted (5 days after treatment) or used to determine cell proliferation (24 hr after treatment) using ^3H-thymidine incorporation. To count the cell, cells were trypsinized, and collected using Eppendorf microcentrifuge. The cell pellets were resuspended in 1% trypan blue and three aliquots (10 ul each) of the viable cell suspension was counted using a haemocytometer assay. Each sample was then counted three times to obtain an average count. For thymidine incoroporation, 24 hr after cell treated with test mixture, cells were incubated with 1 uCi ^3H-thymidine. After 2 hr, the medium was withdrawn and the cells were washed with thymidine-free medium and 10% TCA prior to radioactive count. Plant essential oil compounds were tested in the presence of 10 nM estrogen (=2.7 ng estrogen/ml) using three wells per test concentration. This experiment was repeated two times. A control sample received solvent only at <0.1% ethanol. The data supports the involvement of cellular signaling proteins, particularly cAMP/PKA cascade in the E2-induced cell proliferation in human breast cancer cells as judged by the antiestrogenic activity of FK. However, different methods are required to evaluate antiestrogenic activity.

In test [2] the test system is MCF-7 cells. Briefly: Plant essential oil compounds against E2-induced cell growth, viable cell count (trypan blue, haemocytometer). The following applies: 10 nM estrogen, 5 days of treatment; for protection against E2-induced abnormal cell growth: 1 ug/ml. The protocol: Various concentrations of plant essential oil compounds were tested against E2-induced cell growth to determine the lowest concentrations that antagonize the E2-induced cell growth. MCF-7 cells were cultured in growth medium supplemented with 10% fetal bovine serum (FBS). At 85% confluence, cells were sub-cultured in 6 well petri-dishes and supplemented with 5% FBS serum stripped medium, phenol red free for 24 hours prior to the treatment of different concentrations of the test chemicals. After 5 days of treatment cells were trypsinized and collected using an Eppendorf microcentrifuge. The cell pellets were resuspended in 1% trypan blue. Three aliquots (10 ul each) of the viable cell suspension was counted using a haemocytometer assay. Each sample was then counted three times and to obtain an average count. The compounds were tested in the presence of 10 nM estrogen (=2.7 ng estrogen/ml). Two wells per test concentration were used. This experiment was repeated two times. A control sample-received solvent only at <0.1% ethanol.

Test [3] relates to MCF-7 cells. As to the kind of experiment: Mixed exposure of okadaic acid (OA) and plant essential oil compounds, 3H-thymidine incorporation (FIG. 5). The note with it: 10 ug/ml plant essential oil compound + 1 nM okadaic acid, 24 hr, with or without 10 nM E2. The protocol: MCF-7 cells were cultured in growth medium supplemented with 10% fetal bovine serum (FBS). At 85% confluence, cells were sub-cultured in 6 well petri-dishes medium supplemented with 5% FBS serum stripped medium, phenol red free for 24 hours prior to the treatment of 10 ug/ml of each plant essential oil compound and 1 nM okadiac acid. After 24 hr treatment, cells were used to determine cell proliferation using ^3H-thymidine incorporation. Two hrs after cell incubation with 1 uCi ^3H-thymidine, the medium was withdrawn and the cells were washed with thymidine-free medium and 10% TCA prior to radioactive count. These test chemicals were tested in the presence of 10 nM estrogen (=2.7 ng estrogen/ml). Three wells per test concentration were used. This experiment was repeated two times. A control sample received solvent only at <0.1% ethanol.
A general note: Dividing cells build labelled thymidine or BrdU into new DNA.

Test [4] deals with MCF-7 cells. Briefly: Effect of geldanamycin (GM) on antiestrogenic activity of plant essential oil compounds against E2-induced cell growth (FIG. 4). The following applies: mixed exposure with geldanamycin (GM), 10 nM estrogen. The procedure:
as §1, with “The data supports the involvement of cellular signaling proteins, particularly cAMP/PKA cascade in the E2-induced cell proliferation in human breast cancer cells as judged by the antiestrogenic activity of FK. However, different methods are required to evaluate antiestrogenic activity.” left out

For the molecule `O=C/C=C/c1ccccc1` [Cinnamic aldehyde], in the test with MCF-7 cells [1], the “synergism by FK of the antiestrogenic activity of the plant essential oil compound” value (shortened to “synergism by FK”) is given as “synergizes”. For the same molecule, the “protection against the E2-induced abnormal cell growth” value with MCF-7 cells [2] (10 μg/ml) is listed as “approximately 75%”.
On to `C=CCc1ccc(O)c(OC)c1` [eugenol], for which the “synergism by OA of the antiestrogenic activity of the plant essential oil compound” value with MCF-7 cells [3] is “regardless of the absence or presence of E2”. Also, the “synergism by FK” value in the test on MCF-7 cells [1] was “synergizes”. Further, the “synergism by GM of the antiestrogenic activity against E2 induced cell growth” value in the test on MCF-7 cells [4] is on record as “synergizes”. The “protection against E2-induced abnormal cell growth” value in the test with MCF-7 cells [2] is reported as 35%.
Consider `CC=Cc1ccc(O)c(OC)c1` [isoeugenol], for which the “synergism by FK” value with MCF-7 cells [1] is given as “not”. In addition, the “protection against E2-induced abnormal cell growth” value in the test with MCF-7 cells [2] came out at 25%. Further, in the test on MCF-7 cells [2] (concentration not given), the “protection against the E2-induced abnormal cell growth” value was “approximately 75%”.
Take `Cc1ccc(C(C)C)c(O)c1` [thymol]: the “synergism by OA of the antiestrogenic activity of the plant essential oil compound” value in the test with MCF-7 cells [3] is listed as “only in the absence of E2”. The “synergism by FK” value in the test on MCF-7 cells [1] is on record as “not”. Further, the “protection against the E2-induced cell proliferation” value with MCF-7 cells [2] (5 ug/ml) is 40%.
